# Test results as given in paper PMC13210772, “Dual FLT3/MAPK14 Proteolysis-Targeting Chimera (PROTAC) Induces Potent Acute Myeloid Leukemia Cell Death” (Pharmaceuticals, 2026).
# Assays:
# Test in all cases: NanoBRET CELLinib128
# Format in all cases: binding
# [1] = target: T1, CDK20-CCNH (Homo sapiens, UniProt Q8IZL9); conditions: 100% no effect, 0% complete tracer displacement, read-out: Tracer bound
# T1 construct: Full-length kinase ORF (Promega, Madison, WI, USA) cloned in frame with a NanoLuc-vector was transfected into HEK293T cells; host or cells: HEK293T
# Procedure: (§1) To get an impression about the binding strength of the PROTAC MA191 and the reference inhibitor MA68 to other kinases besides FLT3-ITD the binding on a kinase panel of further 128 representative protein kinases at 1 μM concentration was tested using the NanoBRET^TM cellular target engagement assay (CELLinib128 assay, CELLinib GmbH, Frankfurt, Germany). […] In none of the 128 kinases MA191 was able to displace the tracer (inhibitor) used by more than 50%, Table S1, Supplementary Information).
# (§2) The CELLinib128 assay was performed by CELLinib GmbH, Frankfurt (Germany) as described previously. In brief: Full-length kinase ORF (Promega, Madison, WI, USA) cloned in frame with a NanoLuc-vector was transfected into HEK293T cells in Opti-MEM without phenol red (Life Technologies, Carlsbad, CA, USA) at a density of 2 × 10^5 cells/mL using FuGENE HD (Promega, E2312) and proteins were allowed to express for 20 h. For CDKs, where indicated below, an excess of an activator without an NLuc-fusion was cotransfected. […] The system was allowed to equilibrate at 37 °C for 2 h and 5% CO2 prior to BRET measurements. For PKCs, a chemical activator PMA was added in a final concentration of 1 µM was added together with test compounds and tracers (Promega, V1171). To measure BRET, NanoBRET^TM NanoGlo substrate + extracellular NanoLuc inhibitor (Promega, N2160) were added as per the manufacturer’s protocol, and filtered luminescence was measured (450 nm BP filter (donor) and 610 nm LP filter (acceptor)). For the 1-shot test compounds, data were normalized to the tracer control and the background control or control compound plateau and an average and SD were calculated. […] For the control compounds competitive displacement data were normalized to the tracer Ctrl and the background Ctrl and then plotted and fitted using GraphPad Prism 10 software using a normalized 3-parameter curve fit with the following equation: Y = 100/(1 + 10^X−LogIC50).
# [2] = target: T2, CDK3-CCNE1 (Homo sapiens, UniProt Q00526); conditions: 1 µM; 100% no effect, 0% complete tracer displacement
# T2 construct: Full-length kinase ORF (Promega, Madison, WI, USA) cloned in frame with a NanoLuc-vector was transfected into HEK293T cells; host or cells: HEK293T
# Procedure: as §1, §2
# [3] = target: T3, CDK4-CCND3 (Homo sapiens, UniProt P11802); conditions: 100% no effect, 0% complete tracer displacement, read-out: Tracer bound
# T3 construct: Full-length kinase ORF (Promega, Madison, WI, USA) cloned in frame with a NanoLuc-vector was transfected into HEK293T cells; host or cells: HEK293T
# Procedure: as §1, §2
# [4] = target: T4, CDK5-CDK5R2 (Homo sapiens, UniProt Q00535); conditions: 100% no effect, 0% complete tracer displacement, read-out: Tracer bound
# T4 construct: Full-length kinase ORF (Promega, Madison, WI, USA) cloned in frame with a NanoLuc-vector was transfected into HEK293T cells; host or cells: HEK293T
# Procedure: as §1, §2
# [5] = target: T5, CHEK2 (Homo sapiens, UniProt O96017); conditions: 100% no effect, 0% complete tracer displacement, read-out: Tracer bound
# T5 construct: Full-length kinase ORF (Promega, Madison, WI, USA) cloned in frame with a NanoLuc-vector was transfected into HEK293T cells; host or cells: HEK293T
# Procedure: as §1, §2
# [6] = target: T6, DCLK3 (Homo sapiens, UniProt Q9C098); conditions: 100% no effect, 0% complete tracer displacement, read-out: Tracer bound
# T6 construct: Full-length kinase ORF (Promega, Madison, WI, USA) cloned in frame with a NanoLuc-vector was transfected into HEK293T cells; host or cells: HEK293T
# Procedure: as §1, §2
# [7] = target: T7, EPHA6 (Homo sapiens, UniProt Q9UF33); conditions: 100% no effect, 0% complete tracer displacement, read-out: Tracer bound
# T7 construct: Full-length kinase ORF (Promega, Madison, WI, USA) cloned in frame with a NanoLuc-vector was transfected into HEK293T cells; host or cells: HEK293T
# Procedure: as §1, §2
# [8] = target: T8, IRAK4 (Homo sapiens, UniProt Q9NWZ3); conditions: 1 µM; 100% no effect, 0% complete tracer displacement
# T8 construct: Full-length kinase ORF (Promega, Madison, WI, USA) cloned in frame with a NanoLuc-vector was transfected into HEK293T cells; host or cells: HEK293T
# Procedure: as §1, §2
# [9] = target: T9, JAK2 (Homo sapiens, UniProt O60674); conditions: 1 µM; 100% no effect, 0% complete tracer displacement
# T9 construct: Full-length kinase ORF (Promega, Madison, WI, USA) cloned in frame with a NanoLuc-vector was transfected into HEK293T cells; host or cells: HEK293T
# Procedure: as §1, §2
# [10] = target: T10, JAK3 (Homo sapiens, UniProt P52333); conditions: 100% no effect, 0% complete tracer displacement, read-out: Tracer bound
# T10 construct: Full-length kinase ORF (Promega, Madison, WI, USA) cloned in frame with a NanoLuc-vector was transfected into HEK293T cells; host or cells: HEK293T
# Procedure: as §1, §2
# [11] = target: T11, LIMK2 (Homo sapiens, UniProt P53671); conditions: 100% no effect, 0% complete tracer displacement, read-out: Tracer bound
# T11 construct: Full-length kinase ORF (Promega, Madison, WI, USA) cloned in frame with a NanoLuc-vector was transfected into HEK293T cells; host or cells: HEK293T
# Procedure: as §1, §2
# [12] = target: T12, MAP3K11 (Homo sapiens, UniProt Q16584); conditions: 1 µM; 100% no effect, 0% complete tracer displacement
# T12 construct: Full-length kinase ORF (Promega, Madison, WI, USA) cloned in frame with a NanoLuc-vector was transfected into HEK293T cells; host or cells: HEK293T
# Procedure: as §1, §2
# [13] = target: T13, MAP4K2 (Homo sapiens, UniProt Q12851); conditions: 100% no effect, 0% complete tracer displacement, read-out: Tracer bound
# T13 construct: Full-length kinase ORF (Promega, Madison, WI, USA) cloned in frame with a NanoLuc-vector was transfected into HEK293T cells; host or cells: HEK293T
# Procedure: as §1, §2
# [14] = target: T14, MAPK9 (Homo sapiens, UniProt P45984); conditions: 1 µM; 100% no effect, 0% complete tracer displacement
# T14 construct: Full-length kinase ORF (Promega, Madison, WI, USA) cloned in frame with a NanoLuc-vector was transfected into HEK293T cells; host or cells: HEK293T
# Procedure: as §1, §2
# [15] = target: T15, MYLK3 (Homo sapiens, UniProt Q32MK0); conditions: 100% no effect, 0% complete tracer displacement, read-out: Tracer bound
# T15 construct: Full-length kinase ORF (Promega, Madison, WI, USA) cloned in frame with a NanoLuc-vector was transfected into HEK293T cells; host or cells: HEK293T
# Procedure: as §1, §2
# [16] = target: T16, NEK1 (Homo sapiens, UniProt Q96PY6); conditions: 100% no effect, 0% complete tracer displacement, read-out: Tracer bound
# T16 construct: Full-length kinase ORF (Promega, Madison, WI, USA) cloned in frame with a NanoLuc-vector was transfected into HEK293T cells; host or cells: HEK293T
# Procedure: as §1, §2
# [17] = target: T17, NUAK1 (Homo sapiens, UniProt O60285); conditions: 1 µM; 100% no effect, 0% complete tracer displacement
# T17 construct: Full-length kinase ORF (Promega, Madison, WI, USA) cloned in frame with a NanoLuc-vector was transfected into HEK293T cells; host or cells: HEK293T
# Procedure: as §1, §2
# [18] = target: T18, PLK4 (Homo sapiens, UniProt O00444); conditions: 100% no effect, 0% complete tracer displacement, read-out: Tracer bound
# T18 construct: Full-length kinase ORF (Promega, Madison, WI, USA) cloned in frame with a NanoLuc-vector was transfected into HEK293T cells; host or cells: HEK293T
# Procedure: as §1, §2
# [19] = target: T19, PRKAA2 (Homo sapiens, UniProt P54646); conditions: 100% no effect, 0% complete tracer displacement, read-out: Tracer bound
# T19 construct: Full-length kinase ORF (Promega, Madison, WI, USA) cloned in frame with a NanoLuc-vector was transfected into HEK293T cells; host or cells: HEK293T
# Procedure: as §1, §2
# [20] = target: T20, PRKCQ-PMA (Homo sapiens, UniProt Q04759); conditions: 100% no effect, 0% complete tracer displacement, read-out: Tracer bound
# T20 construct: Full-length kinase ORF (Promega, Madison, WI, USA) cloned in frame with a NanoLuc-vector was transfected into HEK293T cells; host or cells: HEK293T
# Procedure: as §1, §2
# [21] = target: T21, PTK2 (Homo sapiens, UniProt Q05397); conditions: 100% no effect, 0% complete tracer displacement, read-out: Tracer bound
# T21 construct: Full-length kinase ORF (Promega, Madison, WI, USA) cloned in frame with a NanoLuc-vector was transfected into HEK293T cells; host or cells: HEK293T
# Procedure: as §1, §2
# [22] = target: T22, RIOK2 (Homo sapiens, UniProt Q9BVS4); conditions: 100% no effect, 0% complete tracer displacement, read-out: Tracer bound
# T22 construct: Full-length kinase ORF (Promega, Madison, WI, USA) cloned in frame with a NanoLuc-vector was transfected into HEK293T cells; host or cells: HEK293T
# Procedure: as §1, §2
# [23] = target: T23, RPS6KA1 (Homo sapiens, UniProt Q15418); conditions: 100% no effect, 0% complete tracer displacement, read-out: Tracer bound
# T23 construct: Full-length kinase ORF (Promega, Madison, WI, USA) cloned in frame with a NanoLuc-vector was transfected into HEK293T cells; host or cells: HEK293T
# Procedure: as §1, §2
# [24] = target: T24, SNRK (Homo sapiens, UniProt Q9NRH2); conditions: 100% no effect, 0% complete tracer displacement, read-out: Tracer bound
# T24 construct: Full-length kinase ORF (Promega, Madison, WI, USA) cloned in frame with a NanoLuc-vector was transfected into HEK293T cells; host or cells: HEK293T
# Procedure: as §1, §2
# [25] = target: T25, SRMS (Homo sapiens, UniProt Q9H3Y6); conditions: 100% no effect, 0% complete tracer displacement, read-out: Tracer bound
# T25 construct: Full-length kinase ORF (Promega, Madison, WI, USA) cloned in frame with a NanoLuc-vector was transfected into HEK293T cells; host or cells: HEK293T
# Procedure: as §1, §2
# [26] = target: T26, STK3 (Homo sapiens, UniProt Q13188); conditions: 100% no effect, 0% complete tracer displacement, read-out: Tracer bound
# T26 construct: Full-length kinase ORF (Promega, Madison, WI, USA) cloned in frame with a NanoLuc-vector was transfected into HEK293T cells; host or cells: HEK293T
# Procedure: as §1, §2
# [27] = target: T27, STK38L (Homo sapiens, UniProt Q9Y2H1); conditions: 100% no effect, 0% complete tracer displacement, read-out: Tracer bound
# T27 construct: Full-length kinase ORF (Promega, Madison, WI, USA) cloned in frame with a NanoLuc-vector was transfected into HEK293T cells; host or cells: HEK293T
# Procedure: as §1, §2
# [28] = target: T28, TBK1 (Homo sapiens, UniProt Q9UHD2); conditions: 100% no effect, 0% complete tracer displacement, read-out: Tracer bound
# T28 construct: Full-length kinase ORF (Promega, Madison, WI, USA) cloned in frame with a NanoLuc-vector was transfected into HEK293T cells; host or cells: HEK293T
# Procedure: as §1, §2
# [29] = target: T29, TRKA (Homo sapiens, UniProt P04629); conditions: 100% no effect, 0% complete tracer displacement, read-out: Tracer bound
# T29 construct: Full-length kinase ORF (Promega, Madison, WI, USA) cloned in frame with a NanoLuc-vector; host or cells: HEK293T
# Procedure: as §1, §2
# [30] = target: T30, TYK2 (Homo sapiens, UniProt P29597); conditions: 1 µM; 100% no effect, 0% complete tracer displacement
# T30 construct: Full-length kinase ORF (Promega, Madison, WI, USA) cloned in frame with a NanoLuc-vector; host or cells: HEK293T
# Procedure: as §1, §2
# T15 sequence (Q32MK0 whole entry): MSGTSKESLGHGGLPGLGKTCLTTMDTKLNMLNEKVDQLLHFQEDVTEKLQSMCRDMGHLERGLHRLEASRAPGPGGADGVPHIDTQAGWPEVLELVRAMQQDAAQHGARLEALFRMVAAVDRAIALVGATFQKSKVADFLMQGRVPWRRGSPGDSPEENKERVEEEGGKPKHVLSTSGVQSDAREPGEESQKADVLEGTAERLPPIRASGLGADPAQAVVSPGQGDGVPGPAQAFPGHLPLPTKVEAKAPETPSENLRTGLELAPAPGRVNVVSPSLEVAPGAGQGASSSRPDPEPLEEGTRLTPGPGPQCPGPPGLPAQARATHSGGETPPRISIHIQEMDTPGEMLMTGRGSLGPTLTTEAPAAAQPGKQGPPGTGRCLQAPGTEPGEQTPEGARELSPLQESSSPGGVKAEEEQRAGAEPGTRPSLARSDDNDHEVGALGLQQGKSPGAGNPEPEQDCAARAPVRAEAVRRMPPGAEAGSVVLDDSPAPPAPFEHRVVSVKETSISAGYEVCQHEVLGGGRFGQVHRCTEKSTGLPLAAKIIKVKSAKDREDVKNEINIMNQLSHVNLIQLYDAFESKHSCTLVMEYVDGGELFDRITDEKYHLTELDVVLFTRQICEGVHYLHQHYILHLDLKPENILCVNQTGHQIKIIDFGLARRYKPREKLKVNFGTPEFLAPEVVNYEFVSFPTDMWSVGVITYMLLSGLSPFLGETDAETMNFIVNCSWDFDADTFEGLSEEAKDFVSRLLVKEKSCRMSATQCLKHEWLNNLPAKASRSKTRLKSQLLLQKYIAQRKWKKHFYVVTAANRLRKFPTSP
# T17 sequence (O60285 whole entry): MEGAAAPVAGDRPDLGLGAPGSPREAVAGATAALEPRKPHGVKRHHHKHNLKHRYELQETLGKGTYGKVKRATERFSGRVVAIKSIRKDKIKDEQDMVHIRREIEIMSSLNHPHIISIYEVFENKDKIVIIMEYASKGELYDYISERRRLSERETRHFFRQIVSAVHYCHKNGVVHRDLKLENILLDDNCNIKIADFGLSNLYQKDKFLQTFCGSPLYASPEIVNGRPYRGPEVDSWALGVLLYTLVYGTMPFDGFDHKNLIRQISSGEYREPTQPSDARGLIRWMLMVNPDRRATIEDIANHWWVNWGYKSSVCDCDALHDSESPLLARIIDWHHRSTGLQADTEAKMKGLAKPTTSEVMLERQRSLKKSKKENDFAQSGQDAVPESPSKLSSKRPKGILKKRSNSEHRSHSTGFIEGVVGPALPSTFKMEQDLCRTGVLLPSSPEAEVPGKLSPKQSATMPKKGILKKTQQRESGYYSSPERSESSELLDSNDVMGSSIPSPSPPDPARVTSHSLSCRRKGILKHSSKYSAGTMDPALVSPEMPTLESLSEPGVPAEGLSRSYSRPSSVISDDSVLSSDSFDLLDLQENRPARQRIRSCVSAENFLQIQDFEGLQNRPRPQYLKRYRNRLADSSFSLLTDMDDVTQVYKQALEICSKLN
# T20 sequence (Q04759 whole entry): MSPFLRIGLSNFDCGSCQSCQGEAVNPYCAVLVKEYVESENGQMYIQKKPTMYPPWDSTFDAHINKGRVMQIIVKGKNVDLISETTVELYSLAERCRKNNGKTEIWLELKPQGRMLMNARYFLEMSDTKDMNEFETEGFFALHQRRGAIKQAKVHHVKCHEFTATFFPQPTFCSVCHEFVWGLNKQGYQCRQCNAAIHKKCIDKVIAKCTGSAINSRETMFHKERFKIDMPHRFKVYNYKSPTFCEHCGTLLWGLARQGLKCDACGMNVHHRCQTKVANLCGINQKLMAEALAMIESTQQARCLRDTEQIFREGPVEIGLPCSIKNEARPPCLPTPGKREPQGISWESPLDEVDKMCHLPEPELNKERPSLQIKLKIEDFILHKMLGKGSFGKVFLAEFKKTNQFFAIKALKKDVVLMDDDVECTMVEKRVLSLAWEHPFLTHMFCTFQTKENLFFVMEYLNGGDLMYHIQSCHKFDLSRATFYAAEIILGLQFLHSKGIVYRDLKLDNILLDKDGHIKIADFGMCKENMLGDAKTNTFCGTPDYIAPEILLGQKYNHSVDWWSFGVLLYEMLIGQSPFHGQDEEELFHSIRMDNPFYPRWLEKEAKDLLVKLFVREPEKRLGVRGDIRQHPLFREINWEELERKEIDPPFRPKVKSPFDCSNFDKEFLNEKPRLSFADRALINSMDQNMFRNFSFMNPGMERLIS
# T5 sequence (O96017 whole entry): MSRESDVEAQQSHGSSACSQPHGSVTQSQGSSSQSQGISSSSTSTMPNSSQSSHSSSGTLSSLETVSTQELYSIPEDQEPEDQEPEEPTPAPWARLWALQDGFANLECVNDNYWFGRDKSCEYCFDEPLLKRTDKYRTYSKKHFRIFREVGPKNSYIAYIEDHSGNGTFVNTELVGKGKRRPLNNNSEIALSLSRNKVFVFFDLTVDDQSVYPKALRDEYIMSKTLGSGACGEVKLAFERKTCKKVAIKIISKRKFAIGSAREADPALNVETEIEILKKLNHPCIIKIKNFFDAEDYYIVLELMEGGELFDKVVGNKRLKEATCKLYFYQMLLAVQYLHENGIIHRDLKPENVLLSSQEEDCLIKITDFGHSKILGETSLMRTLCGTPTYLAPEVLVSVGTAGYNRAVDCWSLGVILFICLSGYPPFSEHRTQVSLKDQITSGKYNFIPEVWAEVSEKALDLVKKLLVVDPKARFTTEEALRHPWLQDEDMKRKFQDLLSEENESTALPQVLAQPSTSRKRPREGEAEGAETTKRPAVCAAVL
# T1 sequence (Q8IZL9 whole entry): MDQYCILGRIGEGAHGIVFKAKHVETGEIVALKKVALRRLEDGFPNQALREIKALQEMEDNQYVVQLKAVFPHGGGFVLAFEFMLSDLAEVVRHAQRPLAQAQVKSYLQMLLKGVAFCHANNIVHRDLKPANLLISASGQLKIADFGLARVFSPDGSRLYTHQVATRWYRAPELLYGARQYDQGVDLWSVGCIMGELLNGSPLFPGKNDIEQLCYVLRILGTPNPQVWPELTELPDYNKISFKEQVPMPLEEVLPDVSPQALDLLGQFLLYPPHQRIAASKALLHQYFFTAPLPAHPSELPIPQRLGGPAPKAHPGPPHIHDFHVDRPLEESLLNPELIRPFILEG
# T1 sequence (P51946 whole entry partner): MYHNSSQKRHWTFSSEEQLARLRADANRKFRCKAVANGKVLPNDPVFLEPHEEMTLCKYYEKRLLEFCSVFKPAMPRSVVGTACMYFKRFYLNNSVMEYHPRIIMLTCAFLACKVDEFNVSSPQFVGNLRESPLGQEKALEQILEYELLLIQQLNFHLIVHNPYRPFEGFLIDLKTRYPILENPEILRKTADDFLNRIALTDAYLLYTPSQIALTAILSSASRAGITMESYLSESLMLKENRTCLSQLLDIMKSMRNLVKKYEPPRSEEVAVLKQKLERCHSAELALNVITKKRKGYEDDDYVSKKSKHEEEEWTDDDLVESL
# T22 sequence (Q9BVS4 whole entry): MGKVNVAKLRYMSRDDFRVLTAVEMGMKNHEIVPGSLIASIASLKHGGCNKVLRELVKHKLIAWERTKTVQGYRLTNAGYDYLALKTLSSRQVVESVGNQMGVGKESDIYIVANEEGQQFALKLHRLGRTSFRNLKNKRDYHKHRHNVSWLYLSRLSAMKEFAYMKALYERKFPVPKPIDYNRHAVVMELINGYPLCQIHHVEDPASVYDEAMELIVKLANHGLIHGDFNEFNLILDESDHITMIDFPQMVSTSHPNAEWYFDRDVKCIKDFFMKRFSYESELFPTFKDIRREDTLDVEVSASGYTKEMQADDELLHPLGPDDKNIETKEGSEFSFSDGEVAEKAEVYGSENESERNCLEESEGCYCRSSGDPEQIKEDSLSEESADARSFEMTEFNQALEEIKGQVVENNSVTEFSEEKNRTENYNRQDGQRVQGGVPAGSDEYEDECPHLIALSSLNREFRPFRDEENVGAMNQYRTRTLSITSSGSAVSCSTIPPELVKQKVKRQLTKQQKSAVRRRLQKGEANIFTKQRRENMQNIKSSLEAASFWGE
# T25 sequence (Q9H3Y6 whole entry): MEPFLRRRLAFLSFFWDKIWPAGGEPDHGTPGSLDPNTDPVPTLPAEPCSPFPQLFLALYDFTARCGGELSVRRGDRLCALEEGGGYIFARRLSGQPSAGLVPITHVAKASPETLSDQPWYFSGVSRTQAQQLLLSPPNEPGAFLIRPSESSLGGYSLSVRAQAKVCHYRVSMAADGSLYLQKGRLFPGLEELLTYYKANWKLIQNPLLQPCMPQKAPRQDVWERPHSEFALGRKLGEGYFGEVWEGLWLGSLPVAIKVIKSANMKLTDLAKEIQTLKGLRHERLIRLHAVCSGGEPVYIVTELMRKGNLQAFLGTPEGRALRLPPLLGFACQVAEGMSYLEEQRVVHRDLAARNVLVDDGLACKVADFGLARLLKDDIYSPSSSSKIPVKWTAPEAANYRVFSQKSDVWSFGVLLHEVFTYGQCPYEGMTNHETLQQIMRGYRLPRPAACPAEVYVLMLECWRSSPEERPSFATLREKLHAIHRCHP
# T27 sequence (Q9Y2H1 whole entry): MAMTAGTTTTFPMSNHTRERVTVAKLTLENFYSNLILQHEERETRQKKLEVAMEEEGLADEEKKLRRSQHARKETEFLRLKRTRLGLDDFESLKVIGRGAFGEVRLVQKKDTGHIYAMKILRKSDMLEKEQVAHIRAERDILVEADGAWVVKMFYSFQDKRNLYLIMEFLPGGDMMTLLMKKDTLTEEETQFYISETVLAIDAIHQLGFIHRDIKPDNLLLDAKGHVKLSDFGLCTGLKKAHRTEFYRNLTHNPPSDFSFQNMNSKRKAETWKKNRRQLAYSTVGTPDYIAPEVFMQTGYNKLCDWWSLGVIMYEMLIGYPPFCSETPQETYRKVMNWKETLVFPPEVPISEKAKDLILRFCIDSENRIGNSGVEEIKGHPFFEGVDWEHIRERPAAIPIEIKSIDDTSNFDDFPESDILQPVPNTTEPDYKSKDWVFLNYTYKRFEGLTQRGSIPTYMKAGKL
smiles,measurement,setting,value
"Cc1ncsc1-c1ccc([C@H](C)NC(=O)[C@@H]2C[C@@H](O)CN2C(=O)[C@@H](NC(=O)[C@H]2CC[C@H](C(=O)N3CCN(CCNC(=O)c4cc(Oc5ccc(NC(=O)Nc6cc(C(C)(C)C)on6)cc5)ccn4)CC3)CC2)C(C)(C)C)cc1 [MA191, 4-(4-(3-(5-(tert-Butyl)isoxazol-3-yl)ureido)phenoxy)-N-(2-(4-(trans-4-(((S)-1-((2S,4R)-4-hydroxy-2-(((S)-1-(4-(4-methylthiazol-5-yl)phenyl)ethyl)carbamoyl)pyrrolidin-1-yl)-3,3-dimethyl-1-oxobutan-2-yl)carbamoyl)cyclohexanecarbonyl)piperazin-1-yl)ethyl)picolinamide]",remaining activity at 1 µM,[1],108%
same,Tracer bound,[2],117.0%
same,remaining activity at 1 µM,[3],105%
same,remaining activity at 1 µM,[4],104%
same,remaining activity at 1 µM,[5],111%
same,remaining activity at 1 µM,[6],102%
same,remaining activity at 1 µM,[7],82.5%
same,Tracer bound,[8],114.7%
same,Tracer bound,[9],105.7%
same,remaining activity at 1 µM,[10],117%
same,remaining activity at 1 µM,[11],105%
same,Tracer bound,[12],108.2%
same,remaining activity at 1 µM,[13],107%
same,Tracer bound,[14],101.6%
same,remaining activity at 1 µM,[15],108%
same,remaining activity at 1 µM,[16],95.9%
same,Tracer bound,[17],120.0%
same,remaining activity at 1 µM,[18],112%
same,remaining activity at 1 µM,[19],119%
same,remaining activity at 1 µM,[20],104%
same,remaining activity at 1 µM,[21],113%
same,remaining activity at 1 µM,[22],115%
same,remaining activity at 1 µM,[23],110%
same,remaining activity at 1 µM,[24],97%
same,remaining activity at 1 µM,[25],94.4%
same,remaining activity at 1 µM,[26],105%
same,remaining activity at 1 µM,[27],90%
same,remaining activity at 1 µM,[28],108%
same,remaining activity at 1 µM,[29],103%
same,Tracer bound,[30],105.6%
